US20200407717A1, “METHODS OF MODULATING ANTISENSE ACTIVITY” (Ionis Pharmaceuticals, Inc., priority 2018, published 2020)

Legend:
A431 cells [1] = assay: Localization in early and late endosomes after siRNA treatment; assay type: cell-based; details: 20 cells; for % ASO EE/Total ASO: early endosomes (EEA1); for % ASO LE/Total ASO: late endosomes (LAMP1)
Protocol: EGFR levels in A431 cells were reduced using two siRNAs targeting EGFR, Assay ID 42833 and Assay ID 644 (ThermoFisher). A siRNA targeting luciferase was used for a control. Treatment of cells with the EGFR siRNA reduced EGFR protein levels more than 80%. Following siRNA treatment, cells were treated with additional compounds to test for antisense compound localization, activity, or uptake, as described below.
Following siRNA treatment, cells were treated with compound no. 446654 for two hours. EEA1 was labeled as in Example 2 and LAMP1 was labeled with an antibody. EEA1 is a marker for early endosomes and LAMP1 is a marker for late endosomes. Co-localization of compound no. 446654 with EEA1 and with LAMP1 was observed. The number of 446654 loci co-localized with EEA1 or LAMP1 was counted in 20 cells, and compared to the total number of 446654 loci. The difference observed with control siRNA treatment vs EGFR siRNA treatment shown in Table 22 is significant, as determined by the student T-test (p<0.05), whereas the difference shown in Table 23 was not determined to be significant by the student T-test.

A431 cells [2] = assay: Uptake of Cy3-labeled ASO by flow cytometry, A431 cells; assay type: cell-based
Protocol: Uptake of compound no. 446654 by A431 cells was measured by flow cytometry. A431 cells were treated with a growth factor for 4 hours prior to incubation with compound no. 446654 for 2 hours. Results are presented in the tables below as relative fluorescence units (RFU) and represent an average of three independent experiments.
Uptake of compound no. 446654 was measured in siRNA treated A431 cells via flow cytometry, as described in example 8. The results are presented in the tables below and indicate that uptake of compound no. 446654 was unaffected by EGFR expression level.

Substance: Cy3-^mCesTesGes^mCesTesAdsGds^mCdsTds^mCdsTdsGdsGdsAdsTesTesTesGesAe (antisense CTGCTAGCCTCTGGATTTGA; listed as DNA, chemistry not fully specified) [compound 446654, Cy3-labeled PS-ASO]
- % ASO EE/Total ASO (A431 cells [1]; Control luciferase siRNA): 15%
- % ASO EE/Total ASO (A431 cells [1]; EGFR siRNA-1): 26%
- % ASO LE/Total ASO (A431 cells [1]; Control luciferase siRNA): 79%
- % ASO LE/Total ASO (A431 cells [1]; EGFR siRNA-1): 66%
- RFU (A431 cells [2]; 0.015 μM, Control Luciferase siRNA): 22.3 RFU
- RFU (A431 cells [2]; 0.015 μM, EGFR siRNA-1): 25.3 RFU
- RFU (A431 cells [2]; 0.015 μM, EGFR siRNA-2): 24.7 RFU
- RFU (A431 cells [2]; 0.03 μM, Control Luciferase siRNA): 31.3 RFU
- RFU (A431 cells [2]; 0.03 μM, EGFR siRNA-1): 33.0 RFU
- RFU (A431 cells [2]; 0.03 μM, EGFR siRNA-2): 29.0 RFU
- RFU (A431 cells [2]; 0.06 μM, Control Luciferase siRNA): 136 RFU
- RFU (A431 cells [2]; 0.06 μM, EGFR siRNA-1): 133 RFU
- RFU (A431 cells [2]; 0.06 μM, EGFR siRNA-2): 101 RFU
- RFU (A431 cells [2]; 0.12 μM, Control): 1475 RFU
- RFU (A431 cells [2]; 0.12 μM, Control Luciferase siRNA): 359 RFU
- RFU (A431 cells [2]; 0.12 μM, EGF): 1772 RFU
- RFU (A431 cells [2]; 0.12 μM, EGFR siRNA-1): 444 RFU
- RFU (A431 cells [2]; 0.12 μM, EGFR siRNA-2): 292 RFU
- RFU (A431 cells [2]; 0.12 μM, FGF): 1420 RFU
- RFU (A431 cells [2]; 0.12 μM, HGF): 1204 RFU
- RFU (A431 cells [2]; 0.12 μM, IGF): 1659 RFU
- RFU (A431 cells [2]; 0.12 μM, PGF): 1321 RFU
- RFU (A431 cells [2]; 0.12 μM, TGF): 1500 RFU
- RFU (A431 cells [2]; 0.12 μM, VEGF): 1147 RFU
- RFU (A431 cells [2]; 0.25 μM, Control): 1606 RFU
- RFU (A431 cells [2]; 0.25 μM, Control Luciferase siRNA): 806 RFU
- RFU (A431 cells [2]; 0.25 μM, EGF): 1917 RFU
- RFU (A431 cells [2]; 0.25 μM, EGFR siRNA-1): 879 RFU
- RFU (A431 cells [2]; 0.25 μM, EGFR siRNA-2): 852 RFU
- RFU (A431 cells [2]; 0.25 μM, FGF): 1682 RFU
- RFU (A431 cells [2]; 0.25 μM, HGF): 1481 RFU
- RFU (A431 cells [2]; 0.25 μM, IGF): 1435 RFU
- RFU (A431 cells [2]; 0.25 μM, PGF): 1275 RFU
- RFU (A431 cells [2]; 0.25 μM, TGF): 1871 RFU
- RFU (A431 cells [2]; 0.25 μM, VEGF): 1423 RFU
- RFU (A431 cells [2]; 0.5 μM, Control): 2223 RFU
- RFU (A431 cells [2]; 0.5 μM, Control Luciferase siRNA): 1392 RFU
- RFU (A431 cells [2]; 0.5 μM, EGF): 2349 RFU
- RFU (A431 cells [2]; 0.5 μM, EGFR siRNA-1): 1437 RFU
- RFU (A431 cells [2]; 0.5 μM, EGFR siRNA-2): 1490 RFU
- RFU (A431 cells [2]; 0.5 μM, FGF): 1827 RFU
- RFU (A431 cells [2]; 0.5 μM, HGF): 2095 RFU
- RFU (A431 cells [2]; 0.5 μM, IGF): 1917 RFU
- RFU (A431 cells [2]; 0.5 μM, PGF): 2112 RFU
- RFU (A431 cells [2]; 0.5 μM, TGF): 2081 RFU
- RFU (A431 cells [2]; 0.5 μM, VEGF): 1973 RFU
- RFU (A431 cells [2]; 1.0 μM, Control): 1565 RFU
- RFU (A431 cells [2]; 1.0 μM, Control Luciferase siRNA): 2374 RFU
- RFU (A431 cells [2]; 1.0 μM, EGF): 2532 RFU
- RFU (A431 cells [2]; 1.0 μM, EGFR siRNA-1): 2614 RFU
- RFU (A431 cells [2]; 1.0 μM, EGFR siRNA-2): 2906 RFU
- RFU (A431 cells [2]; 1.0 μM, FGF): 2414 RFU
- RFU (A431 cells [2]; 1.0 μM, HGF): 2533 RFU
- RFU (A431 cells [2]; 1.0 μM, IGF): 2237 RFU
- RFU (A431 cells [2]; 1.0 μM, PGF): 2487 RFU
- RFU (A431 cells [2]; 1.0 μM, TGF): 2826 RFU
- RFU (A431 cells [2]; 1.0 μM, VEGF): 2655 RFU
- RFU (A431 cells [2]; Time 0.25 hours, Control Luciferase siRNA): 1082 RFU
- RFU (A431 cells [2]; Time 0.25 hours, EGFR siRNA-1): 814 RFU
- RFU (A431 cells [2]; Time 0.25 hours, EGFR siRNA-2): 950 RFU
- RFU (A431 cells [2]; Time 0.5 hours, Control Luciferase siRNA): 1988 RFU
- RFU (A431 cells [2]; Time 0.5 hours, EGFR siRNA-1): 1562 RFU
- RFU (A431 cells [2]; Time 0.5 hours, EGFR siRNA-2): 1637 RFU
- RFU (A431 cells [2]; Time 1 hours, Control Luciferase siRNA): 2315 RFU
- RFU (A431 cells [2]; Time 1 hours, EGFR siRNA-1): 2308 RFU
- RFU (A431 cells [2]; Time 1 hours, EGFR siRNA-2): 2698 RFU
- RFU (A431 cells [2]; Time 2 hours, Control Luciferase siRNA): 2276 RFU
- RFU (A431 cells [2]; Time 2 hours, EGFR siRNA-1): 2280 RFU
- RFU (A431 cells [2]; Time 2 hours, EGFR siRNA-2): 2349 RFU
- RFU (A431 cells [2]; Time 4 hours, Control Luciferase siRNA): 3103 RFU
- RFU (A431 cells [2]; Time 4 hours, EGFR siRNA-1): 2854 RFU
- RFU (A431 cells [2]; Time 4 hours, EGFR siRNA-2): 3069 RFU
- RFU (A431 cells [2]; Time 6 hours, Control Luciferase siRNA): 4300 RFU
- RFU (A431 cells [2]; Time 6 hours, EGFR siRNA-1): 3747 RFU
- RFU (A431 cells [2]; Time 6 hours, EGFR siRNA-2): 3821 RFU
- RFU (A431 cells [2]; Time 8 hours, Control Luciferase siRNA): 4988 RFU
- RFU (A431 cells [2]; Time 8 hours, EGFR siRNA-1): 5048 RFU
- RFU (A431 cells [2]; Time 8 hours, EGFR siRNA-2): 5145 RFU
- total uptake, effect of growth factor treatment (A431 cells [2]; growth factor 4 hours, then compound 2 hours): not affected in a significant, dose dependent manner
- uptake, effect of EGFR expression level (A431 cells [2]; siRNA treated A431 cells): unaffected
